From patent publication US20090264415A2 (priority 2004, published 2009)

What follows are compounds tested on peripheral blood mononuclear cells (PBMC) stimulated with allogeneic PBMC or EBV-transformed human B cells (RPMI1788) (assay: Mixed lymphocyte reaction (MLR) assay). Details: Homo sapiens, RPMI-1788; MLR assay of example 319; read-out: MLR IC50.
Type: cell-based
Procedure: Pyrido[3,2-d]pyrimidine derivatives were first dissolved (10 mM) in dimethyl-sulfoxide (hereinafter referred as DMSO) and further diluted in culture medium before use for the following in vitro experiments. […] Some pyrido[3,2-d]pyrimidine derivatives described herein were tested in the following mixed lymphocyte reaction (MLR) assay.
Peripheral blood mononuclear cells (hereinafter referred as PBMC) were isolated from heparinized peripheral blood by density gradient centrifugation over Lymphoprep (Nycomed, Maorstua, Norway). Allogeneic PBMC or Eppstein-Barr Virus-transformed human B cells [commercially available under the trade name RPM11788 (ATCC name CCL156)] which strongly express B7-1 and B7-2 antigens were used as stimulator cells after irradiation with 30 Gy. MLR was performed in triplicate wells. After 5 days incubation at 37° C., 1 μCi [^3H]-thymidine was added to each cup. After a further 16 hours incubation, cells were harvested and counted in a β-counter. Inhibition of proliferation by a compound described in some of the present examples was counted while using the formula: [formula] wherein cpm is the thymidine count per minute. The MLR assay is regarded by those skilled in the art as an in vitro analogue of the transplant rejection since it is based on the recognition of allogeneic major histocompatibility antigens on the stimulator leukocytes, by responding lymphocytes.

Compound	IC50 [nM]
Nc1nc(N2CCN(C(=O)COc3ccc(Cl)cc3)CC2)c2nc(-c3cccc(Cl)c3Cl)ccc2n1 [Example 425, 2-amino-4-[4-(4-chlorophenoxyacetyl)piperazin-1-yl]-6-(2,3-dichlorophenyl)-pyrido-[3,2-d]pyrimidine]	300
COc1ccc(-c2ccc3nc(N)nc(N4CCN(C(=O)COc5ccc(Cl)cc5)CC4)c3n2)cc1 [Example 426, 2-amino-4-[4-(4-chlorophenoxyacetyl)piperazin-1-yl]-6-(4-methoxyphenyl)pyrido-[3,2-d]pyrimidine]	30
Nc1nc(N2CCN(C(=O)COc3ccc(Cl)cc3)CC2)c2nc(-c3ccc(Cl)cc3Cl)ccc2n1 [Example 427, 2-amino-4-[4-(4-chlorophenoxyacetyl)piperazin-1-yl]-6-(2,4-dichlorophenyl)-pyrido-[3,2-d]pyrimidine]	300
Nc1nc(N2CCN(C(=O)COc3ccc(Cl)cc3)CC2)c2nc(-c3c(F)cccc3F)ccc2n1 [Example 428, 2-amino-4-[4-(4-chlorophenoxyacetyl)piperazin-1-yl]-6-(2,6-difluorophenyl)pyrido-[3,2-d]pyrimidine]	300
Nc1nc(N2CCN(C(=O)COc3ccc(Cl)cc3)CC2)c2nc(-c3cc(Cl)ccc3Cl)ccc2n1 [Example 429, 2-amino-4-[4-(4-chlorophenoxyacetyl)piperazin-1-yl]-6-(2,5-dichlorophenyl)-pyrido-[3,2-d]pyrimidine]	500
Nc1nc(N2CCN(C(=O)COc3ccc(Cl)cc3)CC2)c2nc(-c3ccccc3Cl)ccc2n1 [Example 430, 2-amino-4-[4-(4-chlorophenoxyacetyl)piperazin-1-yl]-6-(2-chlorophenyl)pyrido-[3,2-d]pyrimidine]	40
Nc1nc(N2CCN(C(=O)COc3ccc(Cl)cc3)CC2)c2nc(-c3cc(Cl)ccc3F)ccc2n1 [Example 431, 2-amino-4-[4-(4-chlorophenoxyacetyl)piperazin-1-yl]-6-(5-chloro-2-fluorophenyl)-pyrido-[3,2-d]pyrimidine]	330
Nc1nc(N2CCN(C(=O)COc3ccc(Cl)cc3)CC2)c2nc(-c3cc(F)c(F)c(F)c3)ccc2n1 [Example 432, 2-amino-4-[4-(4-chlorophenoxyacetyl)piperazin-1-yl]-6-(3,4,5-trifluorophenyl)-pyrido-[3,2-d]pyrimidine]	90
Cc1cccc(C)c1-c1ccc2nc(N)nc(N3CCN(C(=O)COc4ccc(Cl)cc4)CC3)c2n1 [Example 433, 2-amino-4-[4-(4-chlorophenoxyacetyl)piperazin-1-yl]-6-(2,6-dimethylphenyl)-pyrido-[3,2-d]pyrimidine]	3600
CC(C)(C)OC(=O)NCC(=O)N1CCN(c2nc(N)nc3ccc(-c4ccc(F)cc4)nc23)CC1 [Example 434, 2-amino-4-{4-[N-(tert-butoxycarbonyl)-glycyl]-piperazin-1-yl}-6-(4-fluorophenyl)-pyrido[3,2-d]pyrimidine]	93
CS(=O)(=O)Nc1cccc(-c2ccc3nc(N)nc(N4CCN(C(=O)COc5ccc(Cl)cc5)CC4)c3n2)c1 [Example 435, 2-amino-4-[4-(4-chlorophenoxyacetyl)piperazin-1-yl]-6-[N-3-(methanesulfonamidophenyl)]-pyrido-[3,2-d]pyrimidine]	6
Nc1nc(N2CCN(C(=O)CO)CC2)c2nc(-c3ccc(F)cc3)ccc2n1 [Example 437, 2-amino-4-[4-(2-hydroxyacetyl)piperazin-1-yl]-6-(4-fluorophenyl)-pyrido[3,2-d]pyrimidine]	1600
Nc1nc(N2CCN(C(=O)COc3ccc(Cl)cc3)CC2)c2nc(-c3c(Cl)cccc3Cl)ccc2n1 [Example 438, 2-amino-4-[4-(4-chlorophenoxyacetyl)piperazin-1-yl]-6-(2,6-dichlorophenyl)-pyrido-[3,2-d]pyrimidine]	700
Nc1nc(N2CCN(C(=O)COc3ccc(Cl)cc3)CC2)c2nc(-c3ccc(OC(F)(F)F)cc3)ccc2n1 [Example 439, 2-amino-4-[4-(4-chlorophenoxyacetyl)piperazin-1-yl]-6-(4-trifluoromethoxyphenyl)-pyrido-[3,2-d]pyrimidine]	300
Nc1nc(N2CCN(C(=O)COc3ccc(Cl)cc3)CC2)c2nc(-c3cc(F)ccc3F)ccc2n1 [Example 440, 2-amino-4-[4-(4-chlorophenoxyacetyl)piperazin-1-yl]-6-(2,5-difluorophenyl)pyrido-[3,2-d]pyrimidine]	70
Nc1nc(N2CCN(C(=O)COc3ccc(Cl)cc3)CC2)c2nc(-c3ccc(CO)cc3)ccc2n1 [Example 441, 2-amino-4-[4-(4-chlorophenoxyacetyl)piperazin-1-yl]-6-[4-(hydroxymethyl)phenyl]pyrido-[3,2-d]pyrimidine]	8

Compound	IC50 [nM]
Nc1nc(N2CCN(C(=O)COc3ccc(Cl)cc3)CC2)c2nc(-c3c(F)cccc3Cl)ccc2n1 [Example 442, 2-amino-4-[4-(4-chlorophenoxyacetyl)piperazin-1-yl]-6-(2-chloro-6-fluorophenyl)-pyrido-[3,2-d]pyrimidine]	300
CNC(=O)c1ccc(-c2ccc3nc(N)nc(N4CCN(C(=O)COc5ccc(Cl)cc5)CC4)c3n2)cc1 [Example 443, 2-amino-4-[4-(4-chlorophenoxyacetyl)piperazin-1-yl]-6-[4-(methylaminocarbonyl)phenyl]-pyrido-[3,2-d]pyrimidine]	7
NCC(=O)N1CCN(c2nc(N)nc3ccc(-c4ccc(F)cc4)nc23)CC1 [Example 444, 2-amino-4-[4-(aminoacetyl)-piperazin-1-yl]-6-(4-fluorophenyl)-pyrido[3,2-d]pyrimidine]	2300
Cc1ccc(-c2ccc3nc(N)nc(N4CCN(C(=O)COc5ccc(Cl)cc5)CC4)c3n2)cc1 [Example 445, 2-amino-4-[4-(4-chlorophenoxyacetyl)piperazin-1-yl]-6-(4-methylphenyl)pyrido-[3,2-d]pyrimidine]	29
CC(=O)c1ccc(-c2ccc3nc(N)nc(N4CCN(C(=O)COc5ccc(Cl)cc5)CC4)c3n2)cc1 [Example 446, 2-amino-4-[4-(4-chlorophenoxyacetyl)piperazin-1-yl]-6-(4-acetylphenyl)pyrido-[3,2-d]pyrimidine]	11
NCc1ccc(-c2ccc3nc(N)nc(N4CCN(C(=O)COc5ccc(Cl)cc5)CC4)c3n2)cc1 [Example 447, 2-amino-4-[4-(4-chlorophenoxyacetyl)piperazin-1-yl]-6-[4-(aminomethyl)phenyl]pyrido-[3,2-d]pyrimidine]	400
Nc1nc(N2CCN(C(=O)COc3ccc(Cl)cc3)CC2)c2nc(-c3ccc(C(=O)NC4CC4)cc3)ccc2n1 [Example 448, 2-amino-4-[4-(4-chlorophenoxyacetyl)piperazin-1-yl]-6-[4-(cyclopropylaminocarbonyl)phenyl]-pyrido-[3,2-d]pyrimidine]	15
CC(=O)Nc1ccc(-c2ccc3nc(N)nc(N4CCN(C(=O)COc5ccc(Cl)cc5)CC4)c3n2)cc1 [Example 449, 2-amino-4-[4-(4-chlorophenoxyacetyl)piperazin-1-yl]-6-[4-(acetamido)phenyl]-pyrido-[3,2-d]pyrimidine]	39
CCNC(=O)N1CCN(c2nc(N)nc3ccc(-c4ccc(F)cc4)nc23)CC1 [Example 450, 2-amino-4-[4-(N-ethylcarbamoyl)-piperazin-1-yl]-6-(4-fluorophenyl)-pyrido[3,2-c]pyrimidine]	500
CCCCNC(=O)N1CCN(c2nc(N)nc3ccc(-c4ccc(F)cc4)nc23)CC1 [Example 451, 2-amino-4-[4-(N-butylcarbamoyl)-piperazin-1-yl]-6-(4-fluorophenyl)-pyrido[3,2-d]pyrimidine]	200
CNC(=O)N1CCN(c2nc(N)nc3ccc(-c4ccc(F)cc4)nc23)CC1 [Example 452, 2-amino-4-[4-(N-methylcarbamoyl)-piperazin-1-yl]-6-(4-fluorophenyl)-pyrido[3,2-d]pyrimidine]	400
Nc1nc(N2CCN(C(=O)NC34CC5CC(CC(C5)C3)C4)CC2)c2nc(-c3ccc(F)cc3)ccc2n1 [Example 453, 2-amino-4-{4-[N-(1-adamantylcarbamoyl)]-piperazin-1-yl}-6-(4-fluorophenyl)-pyrido[3,2-d]pyrimidine]	4000
Nc1nc(N2CCN(C(=O)NC3CCCC3)CC2)c2nc(-c3ccc(F)cc3)ccc2n1 [Example 454, 2-amino-4-[4-(N-cyclopentylcarbamoyl)-piperazin-1-yl]-6-(4-fluorophenyl)-pyrido[3,2-d]pyrimidine]	400
Nc1nc(N2CCN(C(=O)Nc3ccc(Cl)cc3)CC2)c2nc(-c3ccc(F)cc3)ccc2n1 [Example 455, 2-amino-4-[4-[N-(4-chlorophenyl)carbamoyl]-piperazin-1-yl]-6-(4-fluorophenyl)-pyrido[3,2-d]pyrimidine]	70
CC(C)(C)OC(=O)N1CCCC(Nc2nc(N)nc3ccc(-c4ccc(F)cc4)nc23)C1 (centres unmarked) [Example 457, 2-amino-4-[1-(tert-butoxycarbonyl)piperid-3-ylamino]-6-(4-fluorophenyl)-pyrido[3,2-d]pyrimidine]	6600
Nc1nc(N2CCN(C(=O)OCc3ccccc3)CC2)c2nc(-c3ccc(F)cc3)ccc2n1 [Example 458, 2-amino-4-[4-(benzyloxycarbonyl)-piperazin-1-yl]-6-(4-fluorophenyl)-pyrido[3,2-d]pyrimidine]	700
